Source: patent publication US6380198B1 (Laboratoire Medidom S.A., priority 1997, dated 2002)
“And” between values parts separate entries of the source, which are not always exact repeats. Equal entries are not always repeated.

What was measured:
[1] = system: intraocular pressure of rabbits showing normal baseline intraocular pressure; experiment: Intraocular pressure in rabbits with normal intraocular pressure after topical instillation; assay type: in vivo, rabbit (Vienna Blue, pigmented); conditions: for Intraocular pressure (mmHg) at the time (min): 30, average ± S.D. / Intraocular pressure (mmHg) at the time (min): 60, average ± S.D. / Intraocular pressure (mmHg) at the time (min): 90, average ± S.D. / Intraocular pressure (mmHg) at the time (min): 120, average ± S.D. / Intraocular pressure (mmHg) at the time (min): 180, average ± S.D. / Intraocular pressure (mmHg) at the time (min): 240, average ± S.D. / Intraocular pressure (mmHg) at the time (min): 0, average ± S.D. / Intraocular pressure (mmHg) at the time (min): 30 / Intraocular pressure (mmHg) at the time (min): 60 / Intraocular pressure (mmHg) at the time (min): 90 / Intraocular pressure (mmHg) at the time (min): 120 / Intraocular pressure (mmHg) at the time (min): 180 / Intraocular pressure (mmHg) at the time (min): 240 / Intraocular pressure (mmHg) at the time (min): 0: Table 1, 50 μl eye-drops: 0.050% flunarizine, 0.056% verapamil, 0.051% diltiazem, 0.043% nifedipine; for Intraocular pressure (mmHg) at the time (min): 30, average ± S.D. / Intraocular pressure (mmHg) at the time (min): 60, average ± S.D. / Intraocular pressure (mmHg) at the time (min): 90, average ± S.D. / Intraocular pressure (mmHg) at the time (min): 120, average ± S.D. / Intraocular pressure (mmHg) at the time (min): 180, average ± S.D. / Intraocular pressure (mmHg) at the time (min): 240, average ± S.D. / Intraocular pressure (mmHg) at the time (min): 0, average ± S.D.: average ± S.D. of 4 rabbits; for Intraocular pressure (mmHg) at the time (min): 30, average ± S.D. / Intraocular pressure (mmHg) at the time (min): 30: 30 min after instillation; for Intraocular pressure (mmHg) at the time (min): 60, average ± S.D. / Intraocular pressure (mmHg) at the time (min): 60: 60 min after instillation; for Intraocular pressure (mmHg) at the time (min): 90, average ± S.D. / Intraocular pressure (mmHg) at the time (min): 90: 90 min after instillation; for Intraocular pressure (mmHg) at the time (min): 120, average ± S.D. / Intraocular pressure (mmHg) at the time (min): 120: 120 min after instillation; for Intraocular pressure (mmHg) at the time (min): 180, average ± S.D. / Intraocular pressure (mmHg) at the time (min): 180: 180 min after instillation; for Intraocular pressure (mmHg) at the time (min): 240, average ± S.D. / Intraocular pressure (mmHg) at the time (min): 240: 240 min after instillation; for Intraocular pressure (mmHg) at the time (min): 0, average ± S.D. / Intraocular pressure (mmHg) at the time (min): 0: time 0 = 15 min before instillation (baseline); for Intraocular pressure (mmHg) at the time (min): 30 / Intraocular pressure (mmHg) at the time (min): 60 / Intraocular pressure (mmHg) at the time (min): 90 / Intraocular pressure (mmHg) at the time (min): 120 / Intraocular pressure (mmHg) at the time (min): 180 / Intraocular pressure (mmHg) at the time (min): 240 / Intraocular pressure (mmHg) at the time (min): 0: individual rabbit, right eye
Method: The effects of the agent of the invention on the intraocular pressure of rabbits showing normal baseline intraocular pressure were evaluated in comparison with the action of a placebo, and with that of various other calcium channel blocking agents. Female pigmented rabbits of the Vienna Blue strain were used (supplied by Charles River Italiana, of Calco (CO)). The age of the animals at the time of starting the experimentation was 9 weeks, and their weight was 2.0-2.5 kg.
The choice of a species with pigmented iris is due to the fact that the latter represents a reliable model for the evaluation of possible modifications of the intraocular pressure caused by the products under test. The strain chosen is genetically defined, so as to limit to a minimum the variability of the biological characteristics between one animal and the other.
The animals were kept in rooms maintained under constant and controlled conditions of temperature and humidity, illuminated for 12 hours a day with artificial light and with continuous renovation of the air. The feed consisted of a standard diet having a constant and known composition, and both feed and water were available ad libitum during the whole period of the test. The rabbits were stabled for 21 days before starting the test, so as to allow a sufficient acclimatation and to suitably evaluate the health conditions of the rabbits. Each experimental group consisted of 4 animals, which were allotted to the treatment groups in a randomised way.
Each different group of animals received, by instillation in the right conjunctival fornix, 50 μl of the following products:
The weight concentrations of the various agents under test are chosen so as to correspond to the same molar concentration.
The pressure in the treated eye was measured by flattening tonometer (TonopenXL®, Mentor), 15 minutes before the instillation of the eyerops (time 0) and then 30, 60, 90, 120, 180 and 240 minutes after. As a local anaesthetic, 5 minutes before carrying out each measurement 25 μl of a commercial ophthalmic solution containing 0.4% oxybuprocaine hydrochloride (Novesine®, Sandoz) was instilled. To carry out the measurement the rabbits were placed in a suitably designed cage, that prevents any sudden movement of the animal under test.
For each animal and at each of the times listed above the average of three subsequent measurements was calculated and recorded, each one said measurements being made after 1 minute from the previous one. The intraocular pressure values at the various times were compared with the values obtained before the treatment, by means of the Student's “t” test. The comparisons between different groups were made by processing the data by the variance analysis (ANOVA) and, where possible, by the Student's “t” test for the comparison of two different experimental groups. Values of p<0.05 were considered to be statistically significant.

[2] = system: intraocular pressure of rabbits with ocular hypertension; experiment: Intraocular pressure in rabbits with ocular hypertension induced by α-chymotrypsin; assay type: in vivo, rabbit (Vienna Blue, pigmented); conditions: for Intraocular pressure (mmHg) at the time (min): 30, average ± S.D. / Intraocular pressure (mmHg) at the time (min): 60, average ± S.D. / Intraocular pressure (mmHg) at the time (min): 90, average ± S.D. / Intraocular pressure (mmHg) at the time (min): 120, average ± S.D. / Intraocular pressure (mmHg) at the time (min): 180, average ± S.D. / Intraocular pressure (mmHg) at the time (min): 240, average ± S.D. / Intraocular pressure (mmHg) at the time (min): 0, average ± S.D. / Intraocular pressure (mmHg) at the time (min): 30 / Intraocular pressure (mmHg) at the time (min): 60 / Intraocular pressure (mmHg) at the time (min): 90 / Intraocular pressure (mmHg) at the time (min): 120 / Intraocular pressure (mmHg) at the time (min): 180 / Intraocular pressure (mmHg) at the time (min): 240 / Intraocular pressure (mmHg) at the time (min): 0: Table 3, hypertensive rabbits, 50 μl eye-drops: 0.050% flunarizine, 0.056% verapamil, 0.051% diltiazem, 0.043% nifedipine; for Intraocular pressure (mmHg) at the time (min): 30, average ± S.D. / Intraocular pressure (mmHg) at the time (min): 60, average ± S.D. / Intraocular pressure (mmHg) at the time (min): 90, average ± S.D. / Intraocular pressure (mmHg) at the time (min): 120, average ± S.D. / Intraocular pressure (mmHg) at the time (min): 180, average ± S.D. / Intraocular pressure (mmHg) at the time (min): 240, average ± S.D. / Intraocular pressure (mmHg) at the time (min): 0, average ± S.D.: average ± S.D. of 4 rabbits; for Intraocular pressure (mmHg) at the time (min): 30, average ± S.D. / Intraocular pressure (mmHg) at the time (min): 30: 30 min after instillation; for Intraocular pressure (mmHg) at the time (min): 60, average ± S.D. / Intraocular pressure (mmHg) at the time (min): 60: 60 min after instillation; for Intraocular pressure (mmHg) at the time (min): 90, average ± S.D. / Intraocular pressure (mmHg) at the time (min): 90: 90 min after instillation; for Intraocular pressure (mmHg) at the time (min): 120, average ± S.D. / Intraocular pressure (mmHg) at the time (min): 120: 120 min after instillation; for Intraocular pressure (mmHg) at the time (min): 180, average ± S.D. / Intraocular pressure (mmHg) at the time (min): 180: 180 min after instillation; for Intraocular pressure (mmHg) at the time (min): 240, average ± S.D. / Intraocular pressure (mmHg) at the time (min): 240: 240 min after instillation; for Intraocular pressure (mmHg) at the time (min): 0, average ± S.D. / Intraocular pressure (mmHg) at the time (min): 0: time 0 = 15 min before instillation (baseline); for Intraocular pressure (mmHg) at the time (min): 30 / Intraocular pressure (mmHg) at the time (min): 60 / Intraocular pressure (mmHg) at the time (min): 90 / Intraocular pressure (mmHg) at the time (min): 120 / Intraocular pressure (mmHg) at the time (min): 180 / Intraocular pressure (mmHg) at the time (min): 240 / Intraocular pressure (mmHg) at the time (min): 0: individual rabbit, right eye
Method: Rabbits of the same type as those described in the previous section were used for the following tests.
In the rabbit, the injection of this enzyme in the posterior chamber causes, after one month from the administration, an effect of ocular hypertension.
At the end of the quarantine period the rabbits were anaesthetised by intramuscular administration of ketamine hydrochloride and xylazine hydrochloride (RBI). The right eye was gently pushed outwardly after instilling 25 μl of Novesine® eye-drops, containing oxybuprocaine as an anaesthetic; then, a sterile solution of σ-chymotrypsin (SIGMA, Milan; 150 units in 100 μl of physiologic sterile solution) was injected in the posterior chamber of the right eye by means of a 30G sterile needle. After the administration of the enzyme, the eye was thoroughly washed with physiologic sterile solution in order to remove any traces of α-chymotrypsin which could damage the ocular tissues. Then, 2 drops of a commercial ophthalmic antibiotic solution (Colbiocin®, SIFI S.p.A., containing chloramphenicol, rolitetracycline, colistin methanesulphonate) were instilled. The treatment was carried out 3 times a day (at 8.00 a.m., 12.00 a.m. and 6.00 p.m.) for one week after the administration of α-chymotrypsin. The rabbits were employed in the tests after one month from the induction of ocular hypertension by means of the enzyme.
The rabbits, divided also in this case in groups of 4 animals, were treated by instillation of 50 μl of the product under test in the right conjunctival fornix.
The intraocular pressure in the treated eye was measured, according to the same procedure as in the previous tests, 15 minutes before the instillation of the eye-drops and 30, 60, 90, 120, 180 and 240 minutes after. The values obtained were statistically analysed according to the criteria mentioned in the foregoing.
The experimental conditions were exactly the same as before.

σ-1 receptors = biological target: T1, σ-1 receptors (Oryctolagus cuniculus, UniProt G1SD54); experiment: Inhibition of 3H(+)-N-allyl-nor-methazocine binding to irido-ciliary body membranes; set-up: species or system rabbit (New Zealand albino); conditions: rabbit irido-ciliary body P2 membranes, 300 μg protein, 37° C., 150 minutes, duplicate
T1 construct: cell membranes obtained from the irido-ciliary body complex; from tissue; host or cells: rabbit irido-ciliary body, P2 membrane fraction
Method: The receptor binding technique was carried out on cell membranes obtained from the irido-ciliary body complex explanted, after sacrifice, from male albino rabbits of the New Zealand strain (Charles River Italiana, of Calco (CO)). The tissue was homogenised in buffer and the P2, fraction, rich in cell membrane proteins, was isolated. […] The La total protein concentration was determined with the Lowry method.
The non specific binding was evaluated in presence of haloperidol.
All tests were carried out in duplicate. The reaction was maintained at 37° C. for 150 minutes, followed by filtration on WhatmannGF/B filters. The radioactivity left on the filters was measured by liquid scintillation spectrometry.

intraocular pressure = conditions: Payene et al. 1990; cited from earlier work
[3] = system: cornea (corneal thickness); conditions: rabbit, in vivo
Method: The evaluation of the thickness of the cornea was carried out ecographically by means of a UBM System 840 (Humphrey Instruments, San Leandro, Calif., USA). […] The software incorporated allows to modify the focalisation depth of the ultrasound beam, and to capture the image while varying its amplification.
The animals employed in this test were of the same type as those described in the foregoing, and were treated in the same way. The test was carried out, after having anaesthetised the animal (with ketamine hydrochloride and xylazine hydrochloride), by placing into contact with the eyeball tiny cups filled in with a coupling means (ultrasound gel).

[4] = 50 μl eye-drops, 0.050% flunarizine, equimolar comparators, 0.5% timolol

T1 sequence (G1SD54 1-223): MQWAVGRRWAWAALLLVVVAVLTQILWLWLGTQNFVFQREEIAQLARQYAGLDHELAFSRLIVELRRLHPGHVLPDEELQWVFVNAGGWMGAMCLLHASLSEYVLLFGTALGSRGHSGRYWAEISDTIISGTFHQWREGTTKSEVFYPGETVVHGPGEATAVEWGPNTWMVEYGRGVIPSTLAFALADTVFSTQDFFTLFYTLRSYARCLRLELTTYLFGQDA

Compound | Intraocular pressure (mmHg) at the time (min): 30, average ± S.D. [1] [mmHg] | Intraocular pressure (mmHg) at the time (min): 60, average ± S.D. [1] [mmHg] | Intraocular pressure (mmHg) at the time (min): 90, average ± S.D. [1] [mmHg] | Intraocular pressure (mmHg) at the time (min): 120, average ± S.D. [1] [mmHg] | Intraocular pressure (mmHg) at the time (min): 180, average ± S.D. [1] [mmHg] | Intraocular pressure (mmHg) at the time (min): 240, average ± S.D. [1] [mmHg] | Intraocular pressure (mmHg) at the time (min): 0, average ± S.D. [1] [mmHg] | Intraocular pressure (mmHg) at the time (min): 30 [1] | Intraocular pressure (mmHg) at the time (min): 60 [1] | Intraocular pressure (mmHg) at the time (min): 90 [1] | Intraocular pressure (mmHg) at the time (min): 120 [1] | Intraocular pressure (mmHg) at the time (min): 180 [1] | Intraocular pressure (mmHg) at the time (min): 240 [1] | Intraocular pressure (mmHg) at the time (min): 0 [1] | Intraocular pressure (mmHg) at the time (min): 30, average ± S.D. [2] [mmHg] | Intraocular pressure (mmHg) at the time (min): 60, average ± S.D. [2] [mmHg] | Intraocular pressure (mmHg) at the time (min): 90, average ± S.D. [2] [mmHg] | Intraocular pressure (mmHg) at the time (min): 120, average ± S.D. [2] [mmHg] | Intraocular pressure (mmHg) at the time (min): 180, average ± S.D. [2] [mmHg] | Intraocular pressure (mmHg) at the time (min): 240, average ± S.D. [2] [mmHg] | also measured
COc1ccc([C@@H]2Sc3ccccc3N(CCN(C)C)C(=O)[C@@H]2OC(C)=O)cc1 [diltiazem] | 15.2 ± 1.2 | 14.7 ± 0.9 | 14.7 ± 0.9 | 15 ± 0.5 | 16.2 ± 0.95 | 16 ± 0.6 | 16.7 ± 1.5 | 14 mmHg and 15 mmHg (2×) and 17 mmHg | 14 mmHg (2×) and 17 mmHg and 13 mmHg | 14 mmHg (2×) and 16 mmHg and 15 mmHg | 15 mmHg (2×) and 16 mmHg (2×) | 15 mmHg and 16 mmHg and 17 mmHg (2×) | 16 mmHg (2×) and 17 mmHg (2×) | 15 mmHg and 16 mmHg and 18 mmHg (2×) | 49.5 ± 5.80 | 47.5 ± 5.80 | 48.2 ± 5.90 | 49.5 ± 5.68 | 49.0 ± 5.71 | 48.7 ± 6.13 | Effect on intraocular pressure in rabbits with normal pressure, in words [1, 4]: neither the verapamil formulation nor the diltiazem formulation, both using the same vehicle as MEG 01, did produce any intraocular pressure decrease; Effect on intraocular pressure in rabbits with ocular hypertension, in words [2, 4]: do not show any significant reduction; Intraocular pressure (mmHg) at the time (min): 0, average ± S.D. [2]: 49.0 ± 5.71 mmHg; Intraocular pressure (mmHg) at the time (min): 30 [2]: 55 mmHg and 53 mmHg and 48 mmHg and 42 mmHg; Intraocular pressure (mmHg) at the time (min): 60 [2]: 53 mmHg and 51 mmHg and 46 mmHg and 40 mmHg; Intraocular pressure (mmHg) at the time (min): 90 [2]: 54 mmHg and 52 mmHg and 46 mmHg and 41 mmHg; Intraocular pressure (mmHg) at the time (min): 120 [2]: 56 mmHg and 52 mmHg and 47 mmHg and 43 mmHg; Intraocular pressure (mmHg) at the time (min): 180 [2]: 56 mmHg and 51 mmHg and 48 mmHg and 43 mmHg; Intraocular pressure (mmHg) at the time (min): 240 [2]: 55 mmHg and 52 mmHg and 47 mmHg and 41 mmHg; Intraocular pressure (mmHg) at the time (min): 0 [2]: 55 mmHg and 52 mmHg and 47 mmHg and 42 mmHg; IC50 (σ-1 receptors): > 10 µM; Intraocular pressure after topical administration to rabbits (intraocular pressure): did not detect any significant effect
COC(=O)C1=C(C)NC(C)=C(C(=O)OC)C1c1ccccc1[N+](=O)[O-] [nifedipine] | 14.7 ± 1.2 | 13.7 ± 0.9 | 15.5 ± 0.6 | 16.0 ± 1.5 | 16.5 ± 1.7 | 16 ± 0 | 15.7 ± 1.7 | 15 mmHg (2×) and 13 mmHg and 16 mmHg | 14 mmHg and 13 mmHg (2×) and 15 mmHg | 16 mmHg (2×) and 15 mmHg (2×) | 16 mmHg | 17 mmHg (2×) and 15 mmHg (2×) | 17 mmHg (2×) and 14 mmHg and 18 mmHg | 16 mmHg and 15 mmHg and 14 mmHg and 18 mmHg | 47.7 ± 7.18 | 46.75 ± 6.13 | 46.5 ± 6.19 | 47.0 ± 5.47 | 48.00 ± 4.98 | 48.00 ± 4.96 | Intraocular pressure (mmHg) at the time (min): 0, average ± S.D. [2]: 48.0 ± 5.47 mmHg; Intraocular pressure (mmHg) at the time (min): 30 [2]: 55 mmHg and 52 mmHg and 45 mmHg and 39 mmHg; Intraocular pressure (mmHg) at the time (min): 60 [2]: 53 mmHg and 50 mmHg and 45 mmHg and 39 mmHg; Intraocular pressure (mmHg) at the time (min): 90 [2]: 52 mmHg and 50 mmHg and 46 mmHg and 38 mmHg; Intraocular pressure (mmHg) at the time (min): 120 [2]: 53 mmHg and 49 mmHg and 46 mmHg and 40 mmHg; Intraocular pressure (mmHg) at the time (min): 180 [2]: 54 mmHg and 48 mmHg and 45 mmHg and 41 mmHg; Intraocular pressure (mmHg) at the time (min): 240 [2]: 54 mmHg and 49 mmHg and 47 mmHg and 42 mmHg; Intraocular pressure (mmHg) at the time (min): 0 [2]: 54 mmHg and 50 mmHg and 47 mmHg and 41 mmHg; IC50 (σ-1 receptors): > 10 µM; Corneal swelling / alteration of corneal thickness, in words [3]: No significant effect
